Data reported in patent publication US4016159A, “Acylamino-cephem-carboxylic acids containing an amidino or guanidino group in the molecule” (Hoechst Aktiengesellschaft, priority 1973, dated 1977).
≈ marks a conversion by molar mass, not a printed value.

Legend:
Assay type in all cases: cell-based
Streptococcus pyogenes A = assay: Minimum inhibition concentration (MIC), Table 3; conditions: Germ: Streptococcus pyogenes A; for MIC: read-out: Minimum inhibition concentration MIC
Text: Minimum inhibition concentration MIC in γ/ml
Germ: Streptococcus pyogenes A

[1] = system: Staphylococcus aureus SG 511; assay: Minimum inhibition concentration (MIC), Table 5; conditions: for MIC: Staphylococcus aureus, SG511, Germ: Staphylococcus aureus SG 511, read-out: Minimum inhibition concentration (MIC)
Text: (§1) Minimum inhibition concentration (MIC) in γ/ml
Germ: Staphylococcus aureus SG 511

[2] = system: Staphylococcus aureus 285; assay: Minimum inhibition concentration (MIC), Table 1; conditions: for MIC: Staphylococcus aureus, 285, Germ: Staphylococcus aureus 285, read-out: Minimum inhibition concentration (MIC)
Text: as §1
Germ: Staphylococcus aureus 285

Streptococcus D = assay: Minimum inhibition concentration (MIC), Table 4; conditions: Germ: Streptococcus D; for MIC: Streptococcus, read-out: Minimum inhibition concentration (MIC)
Text: as §1

| MIC (Streptococcus pyogenes A) [µg/mL] | MIC [1] [µg/mL] | MIC [2] [µg/mL] | MIC (Streptococcus D) [µg/mL] | Minimum inhibition concentration (MIC) (Streptococcus pyogenes A) [µg/mL] | Minimum inhibition concentration (MIC) ([1]; Germ: Staphylococcus aureus SG 511) [µg/mL] | Minimum inhibition concentration (MIC) ([2]; Germ: Staphylococcus aureus 285) [µg/mL] | Minimum inhibition concentration (MIC) (Streptococcus D) [µg/mL] | SMILES |
| --- | --- | --- | --- | --- | --- | --- | --- | --- |
| 0.000391 to 0.0078 (≈ 0.000671 to 0.0134 µM) | 0.0196 to 0.0391 (≈ 0.0336 to 0.0671 µM) | 0.156 to 0.391 (≈ 0.268 to 0.671 µM) | 10 to 50 (≈ 17.2 to 85.8 µM) |  |  |  |  | N=C(N)c1ccc(OCC(=O)NC2C(=O)N3C(C(=O)O)=C(CSc4nnc(-c5ccccc5)s4)CSC23)cc1 (stereo not shown) [Example 65, 3-[(5-phenyl-1,3,4-thiadiazole-2-yl)-thiomethyl]-7-(4-amidinophenoxyacetamido)-Δ 3-cephem-4-carboxylic acid] |
| 0.008 to 0.0156 (≈ 0.0123 to 0.024 µM) | 0.0196 to 0.0391 (≈ 0.0301 to 0.0601 µM) | 0.5 to 1.25 (≈ 0.768 to 1.92 µM) | 10 to 50 (≈ 15.4 to 76.8 µM) |  |  |  |  | CCCCCCNC(=N)c1ccc(OCC(=O)NC2C(=O)N3C(C(=O)O)=C(CSc4nnc(-c5ccccc5)o4)CSC23)cc1 (stereo not shown) [Example 39] |
| 0.000391 to 0.0078 (≈ 0.00066 to 0.0132 µM) | 0.0196 to 0.0391 (≈ 0.0331 to 0.066 µM) | 0.156 to 0.391 (≈ 0.263 to 0.66 µM) | 0.196 to 6.25 (≈ 0.331 to 10.5 µM) |  |  |  |  | O=C(Cc1ccc(C2=NCCN2)cc1)NC1C(=O)N2C(C(=O)O)=C(CSc3nnc(-c4ccccc4)s3)CSC12 (stereo not shown) [Example 52, 3-[(5-phenyl-1,3,4-thiadiazole-2-yl)-thiomethyl]-7-[4-(imidazoline-2-yl)-phenylacetamido] -Δ 3-cephem-4-carboxylic acid] |
|  |  |  |  | 0.000391 to 0.0078 | 0.0625 to 0.078 | 0.5 to 1.25 | 10 to 50 | Cc1csc(SCC2=C(C(=O)O)N3C(=O)C(NC(=O)COc4ccc(C(=N)N)cc4)C3SC2)n1 (stereo not shown) [Example 64, 3-[(4-methyl-1,3-thiazole-2-yl)-thiomethyl]-7-(4-amidinophenoxyacetamido)-Δ 3-cephem-4-carboxylic acid] |
| 0.000391 to 0.0078 (≈ 0.000701 to 0.014 µM) | 0.0625 to 0.078 (≈ 0.112 to 0.14 µM) | 0.156 to 0.391 (≈ 0.28 to 0.701 µM) | 0.196 to 6.25 (≈ 0.351 to 11.2 µM) |  |  |  |  | CC(C)c1csc(SCC2=C(C(=O)O)N3C(=O)C(NC(=O)Cc4ccc(C5=NCCN5)cc4)C3SC2)n1 (stereo not shown) [Example 112, 3-[(4-isopropyl-thiazole-2-yl)-thiomethyl]-7-[4-(imidazoline-2-yl)-phenylacetamido]-Δ3-cephem-4-carboxylic acid] |
| 0.000391 to 0.0078 (≈ 0.00069 to 0.0138 µM) | 0.0196 to 0.0391 (≈ 0.0346 to 0.069 µM) | 0.156 to 0.391 (≈ 0.275 to 0.69 µM) | 10 to 50 (≈ 17.6 to 88.2 µM) |  |  |  |  | N=C(N)c1ccc(OCC(=O)NC2C(=O)N3C(C(=O)O)=C(CSc4nnnn4-c4ccccc4)CSC23)cc1 (stereo not shown) [Example 31, 3-[(1-phenyl-1-H-tetrazole-5yl)-thiomethyl]-7-(4-amidinophenoxyacetamido)-Δ3-cephem-4-carboxylic acid] |
| 0.000391 to 0.0078 (≈ 0.000725 to 0.0145 µM) | 0.0625 to 0.078 (≈ 0.116 to 0.145 µM) | 0.156 to 0.391 (≈ 0.289 to 0.725 µM) | 0.196 to 6.25 (≈ 0.363 to 11.6 µM) |  |  |  |  | N=C(N)c1ccc(CC(=O)NC2C(=O)N3C(C(=O)O)=C(CSc4nc5ccccc5s4)CSC23)cc1 (stereo not shown) [Example 92, 3-[benzothiazole-2-yl-thiomethyl]-7-[4-amidino-phenylacetamido]-Δ 3-cephem-4-carboxylic acid] |
| 0.000391 to 0.0078 (≈ 0.000734 to 0.0146 µM) | 0.0625 to 0.078 (≈ 0.117 to 0.146 µM) | 0.5 to 1.25 (≈ 0.939 to 2.35 µM) | 10 to 50 (≈ 18.8 to 93.9 µM) |  |  |  |  | O=C(COc1ccc(C2=NCCN2)cc1)NC1C(=O)N2C(C(=O)O)=C(CSc3nncs3)CSC12 (stereo not shown) [Example 73, 3-[(1,3,4-thiadiazole-2-yl)-thiomethyl]-7-[4-(imidazoline-2-yl)-phenoxyacetamido]-Δ 3-cephem-4-carboxylic acid] |
| 0.000391 to 0.0078 (≈ 0.000628 to 0.0125 µM) | 0.0196 to 0.0391 (≈ 0.0315 to 0.0628 µM) | 0.156 to 0.391 (≈ 0.251 to 0.628 µM) | 0.196 to 6.25 (≈ 0.315 to 10 µM) |  |  |  |  | O=C(COc1ccc(C2=NCCCN2)cc1)NC1C(=O)N2C(C(=O)O)=C(CSc3nnc(-c4ccccc4)s3)CSC12 (stereo not shown) [Example 50] |
| 0.000391 to 0.0078 (≈ 0.000701 to 0.014 µM) | 0.0625 to 0.078 (≈ 0.112 to 0.14 µM) | 0.156 to 0.391 (≈ 0.28 to 0.701 µM) | 10 to 50 (≈ 17.9 to 89.7 µM) |  |  |  |  | Cc1nc(SCC2=C(C(=O)O)N3C(=O)C(NC(=O)Cc4ccc(C5=NCCCN5)cc4)C3SC2)sc1C (stereo not shown) [Example 106, 3-[(4,5-dimethylthiazole-2-yl)-thiomethyl]-7-[4-(1,4,5,6-tetrahydropyrimide-2-yl)-phenylacetamido]-Δ3-cephem-4-carboxylic acid] |
| 0.000391 to 0.0078 (≈ 0.000647 to 0.0129 µM) | 0.0625 to 0.078 (≈ 0.103 to 0.129 µM) | 0.156 to 0.391 (≈ 0.258 to 0.647 µM) | 0.196 to 6.25 (≈ 0.324 to 10.3 µM) |  |  |  |  | CCCCCCNC(=N)c1ccc(OCC(=O)NC2C(=O)N3C(C(=O)O)=C(CSc4nnc(C)s4)CSC23)cc1 (stereo not shown) [Example 33, 3-[(5-methyl-1,3,4-thiadiazole-2-yl)-thiomethyl]-7-[4-(N-n-hexylamidion)-phenoxyacetamido]-Δ 3-cephem-4-carboxylic acid] |
| 0.000391 to 0.0078 (≈ 0.000783 to 0.0156 µM) | 0.0625 to 0.078 (≈ 0.125 to 0.156 µM) | 0.5 to 1.25 (≈ 1 to 2.5 µM) | 10 to 50 (≈ 20 to 100 µM) |  |  |  |  | N=C(N)c1ccc(OCC(=O)NC2C(=O)N3C(C(=O)O)=C(CSc4ccccn4)CSC23)cc1 (stereo not shown) [Example 29, 3-[(pyride-2-yl)-thiomethyl]-7-(4-amidinophenoxyacetamido)-Δ 3-cephem-4-carboxylic acid] |
| 0.000391 to 0.0078 (≈ 0.000737 to 0.0147 µM) | 0.0196 to 0.0391 (≈ 0.0369 to 0.0737 µM) | 0.156 to 0.391 (≈ 0.294 to 0.737 µM) | 10 to 50 (≈ 18.8 to 94.2 µM) |  |  |  |  | CCCCc1nnc(SCC2=C(C(=O)O)N3C(=O)C(NC(=O)Cc4ccc(C(=N)N)cc4)C3SC2)o1 (stereo not shown) [Example 54, 3-[(5-n-butyl-1,3,4-oxadiazole-2-yl)-thiomethyl]-7-(4-amidino-phenylacetamido)-Δ 3-cephem-4-carboxylic acid] |
